Data set [1] is described as follows: Human microsomal stability. Format: in vitro ADME. Conditions: compared with Example 25 of WO 2009/154769; 1 μM, 1 mg/mL microsomes. On the procedure:
Pooled human liver microsomes (1 mg/mL) are incubated at 37° C. in phosphate buffer (pH 7.4) with the test compound (1 μM). The reaction is started with the addition of NADPH. (1 mM final concentration). Incubations are stopped after 0, 5, 10, 20, 40, 60 minutes with the addition of organic solvent. Quenched samples are analyzed for unchanged test compound by LC/MS/MS detection. Percent turnover is determined by the ratio of the amount (peak area) of unchanged test compound remaining in incubated samples to the amount of unchanged test compound in non-incubated samples (0 minutes). Half-life is calculated based on the percent turnover data.

The test system of data set [2] is H2228 tumor cells. Nature of the data set: Cell viability assay of tumor cells with ALK fusion proteins (H2228). Format: cell-based. Conditions: Homo sapiens, NCI-H2228; H2228, 72 hours post drug addition; read-out: Inhibition of H2228 tumor cell growth (IC50). On the procedure:
(§1) At 72 hours post drug addition, Cell Titer Blue Reagent (Promega, Madison, Wis.) was added and fluorescence was measured on a Spectramax spectrophotometer (Molecular Devices, Sunnyvale, Calif.) according to the manufacturer's instructions. All experimental points were set up in hextuplicate replicates and were performed at least two independent times. IC50's were calculated using GraphPad Prism version 5 for Windows. The curves were fit using a nonlinear regression model with a log (inhibitor) vs. response formula.

Data set [3] has as its system H3122 tumor cells. As to the kind of experiment: Cell viability assay of tumor cells with ALK fusion proteins (H3122). In kind it is cell-based. The conditions noted are these: Homo sapiens, NCI-H3122; H3122, 72 hours post drug addition; read-out: Inhibition of H3122 tumor cell growth (IC50). On the procedure:
as §1

For data set [4], the target named is ALK (Homo sapiens (Human), UniProt Q9UM73). As to the kind of experiment: Ambit kinase binding assay (ALK). Conditions: read-out: ALK inhibitory activities in the Ambit assay (IC50). On the procedure: For most assays, kinase-tagged T7 phage strains were grown in parallel in 24-well blocks in an E. coli host derived from the BL21 strain. E. coli were grown to log-phase and infected with T7 phage from a frozen stock (multiplicity of infection 0.1) and incubated with shaking at 32° C. until lysis (˜90 minutes). The lysates were centrifuged (6,000×g) and filtered ([…]) to remove cell debris. The remaining kinases were produced in HEK-293 cells and subsequently tagged with DNA for qPCR detection. […] The liganded beads were blocked with excess biotin and washed with blocking buffer (SeaBlock (Pierce), 1% BSA, 0.05% Tween 20, 1 mM DTT) to remove unbound ligand and to reduce non-specific phage binding. […] Test compounds were prepared as 40× stocks in 100% DMSO and directly diluted into the assay. All reactions were performed in polypropylene 384-well plates in a final volume of 0.04 ml. […] The kinase concentration in the eluates was measured by qPCR.
Chain of ALK (Q9UM73 19-1620): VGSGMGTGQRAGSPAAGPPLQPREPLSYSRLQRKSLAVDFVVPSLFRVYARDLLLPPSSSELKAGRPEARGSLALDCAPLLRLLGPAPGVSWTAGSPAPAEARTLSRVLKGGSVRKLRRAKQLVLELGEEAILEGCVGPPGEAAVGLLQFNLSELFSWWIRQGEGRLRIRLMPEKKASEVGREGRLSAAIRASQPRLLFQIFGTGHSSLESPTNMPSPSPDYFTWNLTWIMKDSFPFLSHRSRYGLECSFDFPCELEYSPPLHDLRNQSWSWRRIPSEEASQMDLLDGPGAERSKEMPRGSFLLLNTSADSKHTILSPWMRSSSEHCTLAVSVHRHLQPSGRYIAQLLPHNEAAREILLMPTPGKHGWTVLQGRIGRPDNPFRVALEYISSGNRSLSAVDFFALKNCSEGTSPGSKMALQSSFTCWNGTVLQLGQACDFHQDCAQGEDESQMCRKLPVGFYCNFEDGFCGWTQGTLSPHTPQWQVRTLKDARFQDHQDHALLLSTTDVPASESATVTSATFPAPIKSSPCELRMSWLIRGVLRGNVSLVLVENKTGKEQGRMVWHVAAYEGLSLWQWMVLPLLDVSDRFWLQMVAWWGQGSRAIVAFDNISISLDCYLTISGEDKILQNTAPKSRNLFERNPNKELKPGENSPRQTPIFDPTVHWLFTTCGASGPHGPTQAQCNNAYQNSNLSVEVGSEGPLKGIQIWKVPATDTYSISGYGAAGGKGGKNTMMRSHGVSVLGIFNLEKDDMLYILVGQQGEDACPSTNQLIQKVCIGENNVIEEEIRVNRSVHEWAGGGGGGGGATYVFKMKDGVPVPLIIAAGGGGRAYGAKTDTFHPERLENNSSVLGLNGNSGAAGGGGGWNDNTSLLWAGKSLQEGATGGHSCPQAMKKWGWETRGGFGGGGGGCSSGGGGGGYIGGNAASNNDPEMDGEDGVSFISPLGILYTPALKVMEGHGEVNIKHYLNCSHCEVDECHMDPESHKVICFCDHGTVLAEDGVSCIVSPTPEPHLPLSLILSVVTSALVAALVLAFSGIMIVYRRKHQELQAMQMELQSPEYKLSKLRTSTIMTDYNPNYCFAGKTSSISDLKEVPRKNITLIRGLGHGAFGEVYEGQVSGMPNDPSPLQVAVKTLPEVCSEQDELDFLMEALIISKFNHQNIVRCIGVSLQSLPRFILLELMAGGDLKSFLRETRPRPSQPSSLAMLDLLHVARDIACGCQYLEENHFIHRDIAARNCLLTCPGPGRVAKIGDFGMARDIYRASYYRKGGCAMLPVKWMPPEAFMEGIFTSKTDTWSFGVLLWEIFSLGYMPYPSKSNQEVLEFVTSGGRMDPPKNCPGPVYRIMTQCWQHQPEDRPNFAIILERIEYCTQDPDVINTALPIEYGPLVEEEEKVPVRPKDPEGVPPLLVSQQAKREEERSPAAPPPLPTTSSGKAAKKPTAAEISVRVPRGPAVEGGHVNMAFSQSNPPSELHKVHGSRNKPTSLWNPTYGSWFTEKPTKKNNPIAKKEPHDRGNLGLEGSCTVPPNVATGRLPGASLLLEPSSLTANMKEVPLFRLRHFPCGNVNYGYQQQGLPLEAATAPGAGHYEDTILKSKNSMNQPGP

Data set [5] can be described thus: Brain penetration. The conditions noted are these: mice, two hours after dosing; compared with Example 1. In kind it is in vivo. On the procedure:
To determine if a compound can cross the blood-brain-barrier (BBB), mice are dosed with the test compound. Two hours after dosing, mice are sacrificed and blood and brain tissues are collected and analyzed for test compound concentration. Brain penetration is defined as ratio of compound concentration in the brain tissues to that in plasma.

Data set [6] concerns SH-SY5Y intracranial tumor. As to the kind of experiment: SH-SY5Y intracranial tumor model. Format: in vivo, Balb/C nude mice. Conditions: oral gavage, vehicle 25 days. On the procedure: Balb/C nude mice were anesthetized by i.p. injection of pentobarbital sodium (100 mg/kg body weight). One million SH-SY5Y cells in a volume of 10 μl full-culture medium were injected into the caudate putamen region using a small animal stereotactic apparatus. On the 7th day after implantation, the tumor-bearing mice were assigned into 4 groups, PF-1066, Example 18 low dose, Example 18 high dose, and vehicle were given twice daily (BID) by oral gavage, treatment was stopped until the animal is dead. Animal survival and body weight were observed and recorded.

The subject of data set [7] is H3122 cells. Nature of the data set: Cell apoptosis assay of tumor cells with ALK fusion proteins. In kind it is cell-based. Conditions: compared with PF-2341066 at the same concentration, 72 h, FIG. 1. On the procedure:
For apoptosis experiments, cells were seeded in 12 well plates at 25% confluency and treated in triplicate with ALK TKI. At 72 h post drug addition, cells were collected, washed in PBS, and stained with annexin V and propidium iodide according to the manufacturer's instructions (Vybrant Apooptosis Assay Kit, Invitrogen, Carlsbad, Calif.). Data were collected on a FACSCanto II (BD Biosciences, San Jose, Calif.) and processed using WinList flow cytometry analysis software (Verity Software, Topsham, Me.).

The target in data set [8] is c-Met (Homo sapiens (Human), UniProt P08581). As to the kind of experiment: Ambit kinase binding assay (c-Met). The procedure:
Assays were performed as described in Fabian et al. (2005) Nature Biotechnology, vol. 23, p. 329 and in Karaman et al. (2008) Nature Biotechnology, vol. 26, p. 127.
For most assays, kinase-tagged T7 phage strains were grown in parallel in 24-well blocks in an E. coli host derived from the BL21 strain. E. coli were grown to log-phase and infected with T7 phage from a frozen stock (multiplicity of infection 0.1) and incubated with shaking at 32° C. until lysis (˜90 minutes). The lysates were centrifuged (6,000×g) and filtered ([…]) to remove cell debris. The remaining kinases were produced in HEK-293 cells and subsequently tagged with DNA for qPCR detection. Streptavidin-coated magnetic beads were treated with biotinylated small molecule ligands for 30 minutes at room temperature to generate affinity resins for kinase assays. The liganded beads were blocked with excess biotin and washed with blocking buffer (SeaBlock (Pierce), 1% BSA, 0.05% Tween 20, 1 mM DTT) to remove unbound ligand and to reduce non-specific phage binding. […] Test compounds were prepared as 40× stocks in 100% DMSO and directly diluted into the assay. All reactions were performed in polypropylene 384-well plates in a final volume of 0.04 ml. The assay plates were incubated at room temperature with shaking for 1 hour and the affinity beads were washed with wash buffer (1×PBS, 0.05% Tween 20). The beads were then re-suspended in elution buffer (1×PBS, 0.05% Tween 20, 0.5 mM non-biotinylated affinity ligand) and incubated at room temperature with shaking for 30 minutes. The kinase concentration in the eluates was measured by qPCR.

We go through eleven compounds from patent US9126947B2, “Substituted pyridazine carboxamide compounds” (Xcovery Holding Company LLC, priority 2010, dated 2015).

In general, IC50 refers to the point on the concentration scale where inhibition reaches its midpoint.

Chain of c-Met (P08581 25-1390): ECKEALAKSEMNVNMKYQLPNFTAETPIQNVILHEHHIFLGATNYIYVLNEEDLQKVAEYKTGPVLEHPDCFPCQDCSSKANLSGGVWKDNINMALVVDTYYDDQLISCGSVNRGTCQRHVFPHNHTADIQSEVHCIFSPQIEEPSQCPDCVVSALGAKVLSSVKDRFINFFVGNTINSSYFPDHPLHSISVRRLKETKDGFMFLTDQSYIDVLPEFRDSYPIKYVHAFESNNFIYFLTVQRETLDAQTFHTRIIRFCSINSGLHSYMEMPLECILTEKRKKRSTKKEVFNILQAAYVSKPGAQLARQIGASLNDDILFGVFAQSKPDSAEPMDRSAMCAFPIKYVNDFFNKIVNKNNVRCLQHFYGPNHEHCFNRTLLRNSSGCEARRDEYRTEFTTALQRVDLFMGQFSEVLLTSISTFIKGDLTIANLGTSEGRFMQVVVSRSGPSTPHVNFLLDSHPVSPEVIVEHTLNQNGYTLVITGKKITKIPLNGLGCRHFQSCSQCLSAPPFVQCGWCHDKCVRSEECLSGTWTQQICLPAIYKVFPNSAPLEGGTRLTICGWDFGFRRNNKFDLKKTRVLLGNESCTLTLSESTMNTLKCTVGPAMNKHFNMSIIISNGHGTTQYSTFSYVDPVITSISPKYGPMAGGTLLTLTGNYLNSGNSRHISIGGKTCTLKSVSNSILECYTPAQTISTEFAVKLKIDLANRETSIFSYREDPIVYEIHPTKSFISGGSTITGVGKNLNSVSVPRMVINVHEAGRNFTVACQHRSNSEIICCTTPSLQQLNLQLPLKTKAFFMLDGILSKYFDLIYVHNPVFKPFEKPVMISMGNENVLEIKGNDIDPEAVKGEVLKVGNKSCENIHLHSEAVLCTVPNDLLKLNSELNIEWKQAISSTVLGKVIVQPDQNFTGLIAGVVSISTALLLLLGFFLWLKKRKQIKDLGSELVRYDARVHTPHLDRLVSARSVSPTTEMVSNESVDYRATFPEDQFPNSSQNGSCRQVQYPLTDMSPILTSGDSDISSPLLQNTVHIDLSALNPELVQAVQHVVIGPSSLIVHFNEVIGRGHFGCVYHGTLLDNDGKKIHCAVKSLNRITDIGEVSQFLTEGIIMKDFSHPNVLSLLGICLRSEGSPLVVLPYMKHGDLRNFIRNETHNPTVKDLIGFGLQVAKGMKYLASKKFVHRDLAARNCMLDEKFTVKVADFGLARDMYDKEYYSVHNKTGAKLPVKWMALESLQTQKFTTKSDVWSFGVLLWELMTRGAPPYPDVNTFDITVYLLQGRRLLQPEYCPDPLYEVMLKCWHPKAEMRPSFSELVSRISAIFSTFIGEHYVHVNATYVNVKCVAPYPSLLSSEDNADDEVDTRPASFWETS

For the compound `C[C@@H](Oc1cc(C(=O)Nc2ccc(C(=O)N3CCCNCC3)cc2)nnc1N)c1c(Cl)ccc(F)c1Cl` [Example 16, {5-[(1R)-1-(2,6-dichloro-3-fluorophenyl)ethoxy]-6-aminopyridazin-3-yl}-N-[4-(1,4-diazaperhydroepinylcarbonyl)phenyl]carboxamide], the “Half-life in human liver microsomes” value in data set [1] is recorded as “longer half-life”. For the same compound, the results for the IC50 in data set [2], in data set [3] and in data set [4] were under 100 nM, under 30 nM and under 1 nM, respectively.
`C[C@@H]1CN(C(=O)c2ccc(NC(=O)c3cc(O[C@H](C)c4c(Cl)ccc(F)c4Cl)c(N)nn3)cc2)C[C@H](C)N1` [Example 18, {5-[(1R)-1-(2,6-dichloro-3-fluorophenyl)ethoxy]-6-aminopyridazin-3-yl}-N-{4-[((3S,5R)-3,5-dimethylpiperazinyl)carbonyl]phenyl}carboxamide]: the “Half-life in human liver microsomes” value in data set [1] is “longer half-life”. The IC50 is under 100 nM in data set [2], under 30 nM in data set [3] and under 1 nM in data set [4]. In addition, in data set [5], the “Brain penetration (ratio of concentration in brain tissues to plasma)” value is “higher brain penetration”. For the same compound, the figures for the “Median survival time (MST)” value in data set [6] (25 mg/kg BID) and in data set [6] (50 mg/kg BID) were 25 days and 34.5 days, respectively.
As for `C[C@@H](Oc1cc(C(=O)Nc2ccc(C(=O)N3CCN(C)CC3)cc2)nnc1N)c1c(Cl)ccc(F)c1Cl` [Example 1, {5-[(1R)-1-(2,6-dichloro-3-fluorophenyl)ethoxy]-6-aminopyridazin-3-yl}-N-{4-[(4-methylpiperazinyl)carbonyl]phenyl}carboxamide], the values for the IC50 in data set [2], in data set [3] and in data set [4] were under 100 nM, under 50 nM and under 1 nM, respectively. The “Induction of apoptosis in H3122 cells” value in data set [7] is reported as “more effective”.
Turning to `C[C@@H](Oc1cc(C(=O)Nc2ccc(C(=O)N3CCN4CCCC4C3)cc2)nnc1N)c1c(Cl)ccc(F)c1Cl` (stereo partly drawn) [Example 13, {5-[(1R)-1-(2,6-dichloro-3-fluorophenyl)ethoxy]-6-aminopyridazin-3-yl}-N-{4-[(3,6-diazabicyclo[4.3.0]non-3-yl)carbonyl]phenyl}carboxamide], the IC50 in data set [4] was under 1 nM.
As to `C[C@@H](Oc1cc(-c2cnn(C3CCNCC3)c2)cnc1N)c1c(Cl)ccc(F)c1Cl` [PF-2341066, crizotinib, reference compound], the “Median survival time (MST)” value in data set [6] (50 mg/kg BID) is 28 days.
Regarding `CC(Oc1cc(C(=O)Nc2ccc(N3CCOCC3)cc2)nnc1N)c1c(Cl)ccc(F)c1Cl` (centres unmarked) [c, reference compound], the results for the IC50 in data set [8] and in data set [4] were under 20 nM and over 10 nM, respectively.
The matching figures for `CC(Oc1cc(C(=O)Nc2ccncc2)nnc1N)c1c(Cl)ccc(F)c1Cl` (centres unmarked) [a, reference compound]: under 20 nM and over 10 nM.
As to `C[C@@H](Oc1cc(C(=O)Nc2ccc(C(=O)N3CCCN(C)CC3)cc2)nnc1N)c1c(Cl)ccc(F)c1Cl` [Example 15, {5-[(1R)-1-(2,6-dichloro-3-fluorophenyl)ethoxy]-6-aminopyridazin-3-yl}-N-{4-[(4-methyl(1,4-diazaperhydroepinyl))carbonyl]phenyl}carboxamide], the IC50 in data set [4] is under 1 nM.
The same measure, in the same setting: to `C[C@H](Oc1cc(C(=O)Nc2ccc(C(=O)N3CCN(C)CC3)cc2)nnc1N)c1c(Cl)ccc(F)c1Cl` [Example 2, {5-[(1S)-1-(2,6-dichloro-3-fluorophenyl)ethoxy]-6-aminopyridazin-3-yl}-N-{4-[(4-methylpiperazinyl)carbonyl]phenyl}carboxamide] belongs over 50 nM.
Turning to `COc1ccc(NC(=O)c2cc(OC(C)c3c(Cl)ccc(F)c3Cl)c(N)nn2)cc1` (centres unmarked) [b, reference compound], the IC50 in data set [8] was under 20 nM; in data set [4], over 10 nM.
Consider `C[C@@H](Oc1cc(C(=O)Nc2ccc(C(=O)N3CCNC(C)(C)C3)cc2)nnc1N)c1c(Cl)ccc(F)c1Cl` [Example 17, {5-[(1R)-1-(2,6-dichloro-3-fluorophenyl)ethoxy]-6-aminopyridazin-3-yl}-N-{4-[(3,3-dimethylpiperazinyl)carbonyl]phenyl}carboxamide], for which, in data set [4], the IC50 was under 1 nM.
